Assay results as given in PMC6514962, “The Impact of O-Glycosylation on Cyanidin Interaction with RBCs and HMEC-1 Cells—Structure–Activity Relationships” (International Journal of Molecular Sciences, 2019).

Experiments:
[1] = tested on: HMEC-1 cells; assay: AAPH-stimulated intracellular ROS generation, H2DCF-DA assay; assay type: cell-based, human; conditions: for inhibitory activity on AAPH-induced intracellular ROS: HMEC-1, throughout the used range of concentrations (50-100 µM); for intracellular ROS level in comparison with control AAPH-oxidized cells: HMEC-1 pretreated 24 h with 50 to 75 µM, then AAPH 24 h
Protocol: (§1) The impact of investigated compounds on the level of intracellular reactive oxygen species and their ability to inhibit AAPH-stimulated intracellular ROS generation were assessed using a H2DCF-DA probe. Non-fluorescent H2DCF-DA is hydrolyzed intracellularly to form 2′,7′-dichlorodihydrofluorescein, which is oxidized by reactive oxygen species to the fluorescent 2′,7′-dichlorofluorescein. ROS production was estimated in HMEC-1 cells seeded on 96-well plates (5 × 10^3/well) and cultured for 12 to 24 h. After that time, the compounds were added at appropriate concentrations. The incubation was continued for another 24 h and 48 h at 37 °C under 5% CO2. In the case of AAPH-simulated ROS generation, the cells were incubated with extracts for 24 h. After incubation, the AAPH dissolved in culture medium was added to each well at the final concentration of 7.5 mM and incubated for the next 24 h. After that time, the cell monolayers were rinsed with HBSS containing 1% albumin and 5 µM of the fluorescence probe, 2′,7′-dichlorodihydrofluorescein diacetate (H2DCF-DA), was added. Immediately and after 0.5 h, 1 h, and 2 h incubation in the dark in standard conditions, the fluorescence was measured at λex = 485 nm and λem = 538 nm.
(§2) In the next step, DNA content was determined. For this purpose, after measurements, the cells were frozen at −70 °C. Next, the cells were thawed and re-frozen after the addition of […] of distilled water/well. Then, the cells were thawed again. After that, 5 µM of RNase was added to each well and incubated for 30 min in the dark at 37 °C. Next, 50 µL of 2.5 µM propidium iodide was added to the cells and incubated for 5 min in the same conditions. The fluorescence intensity of PI was measured at λex = 355 nm and λem = 620 nm. The rate of ROS generation was calculated according to the formula: (1) Rate of ROS=IFe1/IFe2/IFc1/IFc2⋅100% where IFe1 and IFe2 are fluorescence intensities of H2DCF-DA and PI in compound-modified or compound-modified and AAPH-oxidized cells, and IFc1 and IFc2 are fluorescence intensities of H2DCF-DA and PI in control or AAPH-oxidized control cells.

[2] = tested on: MCF-7, HuH-7, HepG2, Caco-2, and HUVEC; set-up: method as in doi:10.3136/fstr.17.515; conditions: cited from earlier work
[3] = tested on: MCF-7 breast cancer cells; conditions: cited from earlier work
[4] = tested on: erythrocytes (RBCs); assay: SEM assay of the shapes of erythrocytes; assay type: cell-based, pig; conditions: 100 µM, 1 h
Protocol: The effect of compounds on the shape of erythrocytes was investigated using a scanning electron microscope (SEM). […] Hematocrit concentration of the erythrocytes in the modification solution was 2%, the modification lasting 1 h at 37 °C. After modification, the erythrocytes where fixed for 48 h in a 2.5% solution of glutaraldehyde. After that, the preparations were washed in phosphate buffer for 20 min, and then the material was dehydrated in a rising series of acetone concentrations (30%, 50%, 60%, 70%, 80%, 90%, and 100%). Each sample was washed for 15 min in an appropriate concentration, the material remaining in pure acetone for 30 min. Next, the erythrocytes were dried for 12 h at room temperature. Erythrocytes thus prepared were deposited on object stages and subjected to x-ray microanalysis by means of an x-ray analyzer, Bruker AXS Quantax, collaborating with the ESPRIT ver. 1.8.2. software. Next, the samples were coated with gold using a Scancoat 6 (Edwards, London) sprinkler. The material ultrastructure was analyzed using a scanning microscope (EVO LS15 ZEISS) with an SE1 detector, under high vacuum and accelerating voltage, acceleration voltage (EHT) = 20 kV. Individual forms of erythrocyte cells were ascribed morphological indices according to the Bessis scale, which for stomatocytes assume negative values from −1 to −4, and for echinocytes from 1 to 4.

[5] = tested on: HMEC-1 cells; assay: intracellular ROS generation in non-oxidized cells, H2DCF-DA assay; assay type: cell-based, human
Protocol: as §1, §2

[6] = tested on: erythrocytes (RBCs); assay: protection of erythrocytes against AAPH-induced hemolysis; assay type: cell-based, pig; conditions: for level of RBCs' protection relative to CR and CDG: compared with CR and CDG
Protocol: Upon removal from plasma, the erythrocytes (RBCs) were washed four times in phosphate solution (pH 7.4) and then incubated in the same solution, but containing appropriate amounts of the compounds studied. The modification was conducted at 37 °C for 1 h, each 1 mL sample containing an RBC suspension of 1.2% hematocrit and 1 to 100 µM of compounds, stirred continuously. After the modification, 2 mL of phosphate buffer were added and samples were centrifuged, and the supernatant assayed for hemoglobin content using a spectrophotometer (Specord 40, Analytik Jena) at the 540 nm wavelength. To test the effect of compounds on hemolysis inducted by AAPH, RBCs were pre-incubated with varying concentrations of compounds at 37 °C for 1 h. Hemolysis of RBCs was carried out by mixing 3% suspension of RBCs (unmodified or modified by 2 to 20 µM of the compounds) in phosphate buffer with AAPH solution (final concentration 120 mM). This reaction mixture was incubated for 3 h at 37 °C. After incubation, samples were centrifuged for 15 min (2000× g, RT). The extent of hemolysis was determined spectrophotometrically by measuring the absorbance of the supernatant at 540 nm. Hemoglobin concentration in the supernatant, expressed as a percentage of the hemoglobin concentration in the supernatant of totally hemolyzed cells, was assumed as the measure of the extent of hemolysis.

[7] = tested on: renal cell carcinoma; set-up: method as in PMID 29742507; conditions: cited from earlier work
[8] = viability of HMEC-1 cells, XTT and Hoechst 33342 assays; assay type: cell-based, human; conditions: human, HMEC-1 cells, HMEC-1, 100 µM, % of control, read-out: cell viability (XTT and Hoechst assay)
Protocol: (§3) The effect of compounds on the viability of HMEC-1 cells was assessed by XTT (2,3-bis-(2-methoxy-4-nitro-5-sulfophenyl)-2H-tetrazolium-5-carboxanilide) and Hoechst 33342 assays. Briefly, 5 × 10^3 cells in 100 µL of the appropriate growth medium were plated in 96-well flat bottom clear microplates and cultured for 24 h at 37 °C in a humidified 5% CO2 incubator to ensure their logarithmic growth. […] A corresponding volume of 0.5% ethanol was added to the control wells. In parallel experiments, some of the cells were additionally incubated with doxorubicin in a concentration of 0.5 µM (a cytotoxic compound usually used as an anticancer drug). After incubation, the medium in the wells was aspirated, the cell monolayers were rinsed twice with pre-warmed (37 °C) PBS, and the cells were allowed to grow for an additional 48 h. After incubation, during the XTT assay, medium was removed by aspiration and 50 µL of XTT/PMS solution (10 µL of 10 mM PMS + 4 mL of 4 mg/mL XTT solution) was added to cells. Cells were incubated in the dark for 2 h (37 °C, 5% CO2). After incubation, the absorbance of the samples was read at 450 nm and 690 nm using an Epoch Microplate Spectrophotometer, BioTek Instruments, Inc., Winooski, Vermont, USA. The fraction of surviving treated cells was presented as a percentage of viable control (untreated) cells taken as 100%. In the Hoechst test, after incubation of cells with cyanidin and its glycosides, the medium was removed and the cells were washed twice with HBSS buffer containing 1% bovine serum albumin and frozen at −70 °C. Next, the cells were thawed at room temperature (RT) and re-frozen after the addition of […] of distilled water. After thawing the plates at room temperature, 100 µL of HVAB solution (0.5% Hoechst in TNE solution containing 2 M NaCl, 1 mM EDTA, 10 mM Tris-HCl, pH 7.4) were added to each well. Next, cells were incubated for 15 min in the dark at 37 °C, mixed, and the fluorescence intensity of the probe was measured at 355 and 460 nm for excitation and emission, respectively (Fluoroskan Ascent FL, Thermo Scientific, Waltham, MA, USA). Cell viability was calculated as the ratio of the fluorescence intensity of the Hoechst 33342 probe for compound-modified to -unmodified cells and expressed as a percentage.

[9] = tested on: HMEC-1 cells; assay: as above; assay type: cell-based, human; conditions: 48 h; for viability of endothelial cells compared with the control: HMEC-1, 100 µM, p < 0.01, both methods; for cytotoxicity: HMEC-1, 10-100 µM
Protocol: as §3

[10] = set-up: method as in doi:10.1007/s10068-014-0279-x; conditions: cited from earlier work
[11] = tested on: RAW 264.7 cells; set-up: method as in doi:10.1007/s10068-014-0279-x; conditions: 100 to 200 µg/mL; cited from earlier work
[12] = tested on: HER2 (breast cancer), GBM (glioblastoma), and human monocytic leukemia; set-up: method as in PMID 15080622, PMID 24312561, PMID 28867321; conditions: cancer cells, interrupting the G2-M phase; cited from earlier work
[13] = tested on: macrophages; set-up: method as in doi:10.1007/s10068-014-0279-x; conditions: cited from earlier work
[14] = tested on: human peripheral blood mononuclear cells; set-up: method as in PMID 17360708; conditions: cited from earlier work
[15] = tested on: HL-60 cells; set-up: method as in PMID 17360708; conditions: by the accumulation of peroxides; cited from earlier work

Compound	morphological index of induced echinocytes (Bessis scale) [4]	intracellular ROS level compared with control cells ([5]; HMEC-1, 24 h, 50-100 µM)	intracellular ROS level compared with control cells ([5]; HMEC-1, 48 h, 50-100 µM)	inhibitory activity on AAPH-induced intracellular ROS [1]	intracellular ROS level in comparison with control AAPH-oxidized cells [1]	cytotoxicity [9]	further results
CC(C)(N=NC(C)(C)C(=N)N)C(=N)N.Cl.Cl [AAPH, 2,2′-azobis(2-amidinopropane) dihydrochloride, reference compound]	–	–	–	–	–	–	increase in the ROS level ([1]; HMEC-1, 24 h incubation with AAPH (7.5 mM), 37 °C): about 60%
Oc1cc(O)c2cc(O)c(-c3ccc(O)c(O)c3)[o+]c2c1 [C, Cyanidin]	+4	significant decrease	decreased	does not cause any inhibitory activity	–	–	intracellular ROS levels [2]: decreased; cell proliferation and apoptosis [3]: inhibition of cell proliferation and increased apoptosis; antioxidant activity compared with CG, CA, and CGA [6]: did not observe any significant differences; percentage of apoptotic cells ([7]; 48 h at 0, 25, 50, and 100 μM): gradually increased; cell cycle arrest ([7]; independently of the concentration): induced cell cycle arrest; viability at 48 h, 100 µM [8]: 65 to 80%; viability of endothelial cells compared with the control [9]: decreased the viability
Oc1cc(O)c2cc(OC3OCC(O)C(O)C3O)c(-c3ccc(O)c(O)c3)[o+]c2c1 (stereo not drawn) [CA, cyanidin-3-O-arabinoside]	+2	significant decrease	decreased	–	significant decrease	–	level of RBCs' protection relative to CR and CDG [6]: better protection; viability at 48 h, 100 µM [8]: 60 to 85%; viability of endothelial cells compared with the control [9]: decreased the viability
OCC1OC(Oc2cc3c(OC4OC(CO)C(O)C(O)C4O)cc(O)cc3[o+]c2-c2ccc(O)c(O)c2)C(O)C(O)C1O (stereo not drawn) [CDG, cyanidin-3-5-O-diglucoside]	+1	significant decrease	decreased	strong inhibitory action	significant decrease	no cytotoxicity	protective effect against AAPH-induced oxidative stress ([1]; HMEC-1, 100 µM): protective effect
OCC1OC(Oc2cc3c(O)cc(O)cc3[o+]c2-c2ccc(O)c(O)c2)C(O)C(O)C1O (stereo not drawn) [CG, cyanidin-3-O-glucoside]	–	significant decrease	–	–	significant decrease	no cytotoxicity	intracellular ROS levels [2]: did not; nitrite scavenging activity compared with CR [10]: higher; cell viability compared with control cells [11]: significantly decreased; intracellular ROS level compared with control cells ([5]; HMEC-1, 48 h, 100 µM): no significant difference; level of RBCs' protection relative to CR and CDG [6]: better protection; cytotoxic effect (apoptosis) [12]: inducing apoptosis; protective effect against H2O2-induced cytotoxicity compared with CR [13]: stronger protective effect
OCC1OC(Oc2cc3c(O)cc(O)cc3[o+]c2-c2ccc(O)c(O)c2)C(O)C(O)C1O (stereo not drawn) [CGA, cyanidin-3-O-galactoside]	–	–	decreased	–	–	–	–
CC1OC(OCC2OC(Oc3cc4c(O)cc(O)cc4[o+]c3-c3ccc(O)c(O)c3)C(O)C(O)C2O)C(O)C(O)C1O (stereo not drawn) [CR, cyanidin-3-O-rutinoside]	+1	did not differ	no significant difference	does not cause any inhibitory activity	–	no cytotoxicity	cell viability compared with control cells [11]: significantly decreased; toxicity [14]: relatively low toxicity; apoptosis [15]: induce apoptosis
